Measured values: article PMC6804243, “Small-Molecule Inhibition of UBE2T/FANCL-Mediated Ubiquitylation in the Fanconi Anemia Pathway” (ACS Chemical Biology, 2019)

How the values were obtained:
[1] = system: mUb-FANCD2 (UBE2T and FANCL-dependent monoubiquitylation of FANCD2); assay: Immunoblot of mUb-FANCD2 formation in U2OS cells; assay type: cell-based; details: for level of mUb-FANCD2 in response to HU: CU1 200 μM or CU2 500 μM, 8 h; for level of mUb-FANCD2 in response to HU / level of mUb-FANCD2: HU 2.5 mM; for level of mUb-FANCD2: compound 100 μM, 1 h preincubation, 24 h
Protocol: U2OS cells were treated with HU and the formation of mUb-FANCD2 in the presence of CU 1, CU2, and CU9 was evaluated relative to a DMSO control. Following a 1-h preincubation with the compounds, cells were treated with 2.5 mM of HU for 24 h. […] Accordingly, cells were treated with a higher concentration of compounds in further experiments.
Figure 3 Cell-based assays with CU1 and CU2: (a) Western blot showing that the formation of mUb-FANCD2(*), in response to HU treatment (2.5 mM, 8 h), is impaired in U2OS cells in the presence of CU1 (200 μM) or CU2 (500 μM). Ratio = mUb-FANCD2/FANCD2 (normalized to DMSO control). mUb-FANCD2 was resolved on a separate gel. PARP1 was used as a loading control for each gel, as well as to assess apoptosis. (b) Quantification of the reduction in mUb-FANCD2, in response to HU treatment (2.5 mM, 8 h) in the presence of CU1 (200 μM) or CU2 (500 μM). Mean calculated from three independent experiments. (c) Western blot showing that formation of mUb-FANCD2 (denoted by an asterisk symbol, *) in response to cisplatin treatment (10 μM) for 6, 12, and 24 h is impaired in U2OS cells in the presence of CU2 (500 μM). Ratio = mUb-FANCD2/FANCD2 (normalized to DMSO control). (d) Cell cycle analyses based upon EdU incorporation in cells treated with HU (2.5 mM, 8 h) in the presence or absence of CU1 (200 μM) or CU2 (500 μM). HU treatment was used for gating purposes. […] TEXT PRINTED IN THE PICTURE: (d) DMSO: S-phase 42.7; G1 29.2; G2-M 27.8 | (d) HU: S-phase 0.24; G1 72.4; G2-M 22.9 | (d) CU1: S-phase 43.4; G1 26.8; G2-M 29.1 | (d) CU2: S-phase 39.7; G1 31.9; G2-M 28.2 DOUBTS OF THE COPYIST ABOUT THIS PICTURE: Panel d print is small, so these digits are best readings: DMSO G2-M 27.8 (8 or 6); CU1 G1 26.8 (6 or 8); CU2 S-phase 39.7 (9 or 8); CU2 G2-M 28.2 (8 or 6) / Panels a and c: the lane ratios printed under the western blots (a: 1.0, 0.64, 0.40; c: 1.0/0.65, 1.0/0.63, 1.0/0.53) were left out because they belong to blots and the picture prints no measure for them […]
Reaction mixtures were incubated for the indicated time at 37 °C and stopped by the addition of 2X reducing SDS -PAGE sample buffer, separated on NuPAGE Novex 4 –12% Bis/Tris gradient gels (Invitrogen) and visualized by Western blotting using the indicated antibodies (Table S3).
Cell culture. U2OS cells were cultured at 37 °C in a humidified atmosphere and 5% (v/v) CO2 in Dulbecco's Modified Eagle Medium (DMEM; Sigma-Aldrich) supplemented with 10% (v/v) fetal bovine serum (FBS), 100 units/ml of penicillin, […] of streptomycin and 292 μg/mL L-glutamine.
Cell extract preparation and immunoblotting. U2OS cells were lysed in buffer containing 50 mM Tris-HCl pH 7.5, 2% SDS, 10 mM NEM, cocktail protease inhibitor (Roche) and phosphatase inhibitor cocktail followed by sonication 100 µg of extracts were boiled for 5 mins at 95 °C in 5X loading buffer and loaded onto NuPAGE Novex 4–12% Bis/Tris gradient gels
(Invitrogen), or NuPAGE Novex 3-8% Tris/Acetate gradient gels (Invitrogen) for detection of mUb-FANCD2. After separation the gels were transferred to PVDF and the membranes were blocked with Tris-buffered saline containing 0.1% (v/v) Tween-20 (TBST) and 5% (v/v) bovine serum albumin (BSA) and incubated with the indicated primary and secondary antibodies. mUb-FANCD2 intensity was quantified using Image Studio (LI-COR).
IncuCyte cell proliferation assays. 2000 U2OS cells were seeded per well in 96-well plates and treated with compounds 24 hours afterwards. After 1 hour of compound treatment, 15 µM carboplatin (Sigma-Aldrich) was added and the cells were cultured in an incubator with an IncuCyte microscopy -platform (Essen BioScience). Phase -contrast images were acquired every 6 hours for 8 days until DMSO-carboplatin treated cells reached >80% confluence. Cell proliferation was monitored as the occupied area (% confluence) of cell images over time and calculated as percentage confluence over time. Cell confluency […]

UBE1 = system: T1, UBE1; assay: Gel-based ubiquitylation assay (UBE2T/GST-FANCLRING), autoubiquitylation of UBE1; assay type: biochemical; details: compound 100 μM; Western blot probed for biotin
T1 construct: purchased Boston Biochem

Row | SMILES | level of mUb-FANCD2 in response to HU [1] | level of mUb-FANCD2 [1] | autoubiquitylation of UBE1 (UBE1) | level of mUb-FANCD2 in response to cisplatin ([1]; CU2 500 μM, cisplatin 10 μM for 6, 12 and 24 h)
1 | NCCN1C(=O)CC[C@H]2CN(Cc3cccc(-c4ccco4)c3)CC[C@H]21 [CU1] | reduced the level of mUb-FANCD2 | no significant decrease in the level of mUb-FANCD2 | did not affect ubiquitylation of either UBE2T or UBE1 | 
2 | CCN1CCN(c2cc(C)nc3nc(CN4CCCCC4C)nn23)CC1 (stereo not shown) [CU2] | reduced the level of mUb-FANCD2 | no significant decrease in the level of mUb-FANCD2 | did not affect ubiquitylation of either UBE2T or UBE1 | reduced the level of mUb-FANCD2
3 | Cc1nnc(N(C)CC2CCN(CC(C)O)CC2)c(C#N)c1C (stereo not shown) [CU9] |  | no significant decrease in the level of mUb-FANCD2 | did not affect ubiquitylation of either UBE2T or UBE1 | 
4 | NC(=O)[C@@H]1CCCN1C(=O)c1cc(-n2cccc2)ccc1Cl [CU12] |  |  | somewhat impaired the autoubiquitylation of UBE1 | 
